Laboratory results as given in publication PMC10115881, “Disrupting the α-synuclein-ESCRT interaction with a peptide inhibitor mitigates neurodegeneration in preclinical models of Parkinson’s disease” (Nature Communications, 2023).

Key:
[1] = system: VPS4B-CHMP2B interaction; experiment: Co-immunoprecipitation: disruption of VPS4B-CHMP interaction; format: cell-based
Procedure: HEK293T cells were co-transfected with Flag-tagged target protein, HA-tagged source protein, and GFP-tagged peptide or GFP. Cells were lysed 48 h after transfections with radioimmune precipitation assay buffer (50 mM Tris-HCl pH 7.4, 1% Nonidet P-40, 150 mM NaCl, 1 mM EDTA, 10 mM Na3VO4, 10 mM sodium pyrophosphate, 25 mM NaF, 1× protease inhibitor mixture (Sigma)) for 30 min at 4 °C and co-immunoprecipitated with Flag beads (Clontech). The resulting immunocomplexes were analyzed by immunoblot using the appropriate antibodies. Protein samples were separated using 4–20% Mini-PROTEAN Tris-glycine gels (Bio-Rad) transferred to PVDF membranes and blocked in 5% milk containing PBS-Tween-20 (0.1%) for 1 h. PVDF membranes were then incubated with specified primary antibodies followed by incubation with horseradish peroxidase-conjugated secondary antibodies (anti-mouse HRP-linked, Cell Signaling, catalog #7076, 1:5000; anti-rabbit HRP-linked, Cell Signaling, catalog #7074, 1:5000) and detected using enhanced chemiluminescence (GE Healthcare). HA antibodies were obtained from Santa Cruz (catalog #7392, 1:2000), GFP antibodies were purchased from Abcam (catalog #ab290, 1:2000), and Flag antibodies were purchased from Sigma (catalog #A8592, 1:1000).

[2] = system: A53T a-syn or EV rats; experiment: AAV-A53T a-syn rat model, low titer; format: in vivo
Source text: Third, we used a preclinical rat model of PD in which SN degeneration is induced by AAV vector-mediated expression of human mutant A53T a-syn[18],[45]–[48] (Fig. 5A). […] (Fig. 5B, C). […] Furthermore, overexpression of A53T a-syn was associated with a reduction in LAMP1 positive puncta in the SN which was restored with PDpep1.3 (Figs. 5E, S5E). […] Forelimb asymmetry in the cylinder test is a behavioral impairment associated with SN degeneration which models bradykinesia, the cardinal motor abnormality in PD[49].
Adult female Sprague-Dawley rats (250–280 g; Envigo) were pair-housed in cages with wood bedding and had access to food and water ad libitum. The animal colony was maintained in a regular 12 h light/dark cycle. All procedures were approved by the University Health Network Animal Care Committee in accordance with guidelines and regulations set by the Canadian Council on Animal Care (AUP #3818).
Animals were secured in a stereotactic frame under isoflurane/oxygen anesthesia and ketoprofen (5 mg/kg) analgesia. The surgical site was shaved and sterilized with iodine/betadine prior to making a 2 cm incision along the midline. The scalp was exposed and a unilateral injection targeting the SN was performed at coordinates AP −5.2 mm, ML −2 mm and DV −7.5 mm with respect to the bregma as a point of reference. […]
Immunofluorescence staining for a-syn, pS129 a-syn, TH, and LAMP1 was performed by washing free-floating sections with PBS-T (0.1% Tween-20 or 0.2% Triton-X-100) three times for 10 min each at room temperature. […] Sections were then mounted onto glass slides and allowed to dry and then Dako fluorescence mounting medium (Agilent) was applied, followed by coverslips.
Confocal images of immunofluorescent staining of midbrain sections were processed using HALO software (Indica Labs), which is a well validated tool for automatic quantification of neurons in brain tissue sections[70]–[72]. […] Levels of total a-syn were assessed in this ROI by measuring the area and intensity of anti-a-syn staining. […]

DEEIERQLKALG [PDpep1.3]
Effect on VPS4B-CHMP2B interaction [1]: inhibits the CHMP2B-VPS4 interaction | Effect on LAMP1 positive puncta in SN [2]: restored | Effect on total a-syn positive area in SN [2]: significant reduction in total a-syn positive area in the SN | a-syn mean fluorescence intensity in TH+ and GFP+ SN cells ([2]; n = 5–7 rats/group): 0.335 ± 0.025 RFU
